One data set deals with RD cells. As to conditions: 48 h treatment, CCK-8, absorbance 450 nm, n = 3.
For the next data set, the system named is EV71. As to conditions: read-out: EC50 for EV71; RD cells, 48 h, intracellular VP1 mRNA by RT-qPCR vs GAPDH, three independent experiments, four-parameter fit. (In qPCR the cycle at which signal appears reflects the starting amount.)
The nature of data set [1]: C15 alone in neonatal mice without CA6 infection (toxicity). In kind it is in vivo, ICR mice. The procedure: To investigate the anti-viral efficacy of C15 against CA6 in vivo, we established a lethal infection model using 1-day-old ICR mice. The mice were infected with CA6 at a concentration of 10^7 TCID50 and then treated with two different concentrations of C15 (1 and 5 mg/kg). The mice were monitored over a period of 7 days to assess various indicators (Fig. 7A). The mice in the control group, which received Dulbecco’s Modified Eagle Medium (DMEM) alone, began to succumb to the infection on day 4, with all mice dying by day 6. On day 6, the average clinical score of the mice in the control group was 5. […] Treatment with 1 mg/kg C15 improved survival rates by 60%, while 5 mg/kg C15 provided complete protection, achieving a 100% survival rate (Fig. 7D).
ICR pregnant specific pathogen-free mice were purchased from Beijing Vital River Laboratory. Pregnant mice gave birth approximately 5 days after arrival at the laboratory. One day-old ICR neonatal mice were used to establish the CA6 infection mouse model. The CA6 virus, at a concentration of 10^7 TCID50/mL, was mixed with varying concentrations of C15 (1 and 5 mg/kg) and intracranially injected into the 1 day-old neonatal mice (10 µL per mouse). Five experimental groups were designed, and observations of various indicators were conducted over the subsequent 7 days, as well as samples collected for analysis. […]

The test system of a further data set is CA16. As to conditions: read-out: EC50 for CA16; RD cells, 48 h, intracellular VP1 mRNA by RT-qPCR vs GAPDH, three independent experiments, four-parameter fit.
Data set [2] has as its system CA6. As to conditions: read-out: EC50 for CA6; RD cells, 48 h, intracellular VP1 mRNA by RT-qPCR vs GAPDH, three independent experiments, four-parameter fit.
Data set [3] relates to EVD68. As to conditions: read-out: EC50 for EVD68; RD cells, 48 h, intracellular VP1 mRNA by RT-qPCR vs GAPDH, three independent experiments, four-parameter fit.
Data set [4] concerns the target Coxsackievirus A6 (CA6) virion, strain changchun046/CHN/2013 (coxsackievirus A6).
The target of data set [5] is Enterovirus D68 (EVD68) virion, strain US/KY/14-18953 (enterovirus D68).
Data set [6] has as its system EVD68. Put plainly: Purified PF4-His added to cells infected with EVD68. In kind it is cell-based, enterovirus D68. As to conditions: increasing doses of purified PF4-His, 48 h, Western blot, RT-qPCR, TCID50. The procedure:
(§1) (A and B) HEK-293T cells transfected with cDNA-PF4-Myc or the VR1012 expression vector serving as a control. […] (C and D) Viral loads in the supernatant were evaluated by measuring VP1 gene mRNA levels using reverse transcription quantitative PCR (RT-qPCR). (E and H) PF4-His proteins expressed in Escherichia coli were added to the cell supernatant at the indicated concentration, and the cells were simultaneously infected with CA6 or EVD68. Cell lysates and supernatants (concentrated 100-fold) were collected at 48 h. Western blot was performed to detect the viral VP1 protein in the cells and supernatant, with tubulin serving as a loading control. (F and I) Intracellular mRNA levels of VP1 were determined by RT-qPCR, using GAPDH as a control. (G and J) 50% tissue culture infective dose (TCID50) assays were performed using supernatants collected from infected rhabdomyosarcoma cells at 48 h, containing various concentrations of PF4-His.
(§2) PF4 is a secreted protein. To further assess its anti-viral potential, PF4 proteins were expressed and purified from Escherichia coli. […]
(§3) The cDNA of PF4-His with His tag at the N-terminus was synthesized and inserted into PEXs-DH by Comate Bioscience Company and expressed in E. coli BL21-derived cells. […] The […] of the resulting proteins was determined through BCA Protein Assay Kits (Epizyme, #ZJ102L) analysis.
A general note: A western blot detects proteins with antibodies after separation by electrophoresis.

Data set [7] concerns CA6. Put plainly: Purified PF4-His added to cells infected with CA6. The data set is classed as cell-based, coxsackievirus A6. The note with it: increasing doses of purified PF4-His, 48 h, Western blot, RT-qPCR, TCID50. On the procedure:
as §1, §2, §3

Where no end group is shown, it is not given here.

Broadly, the EC50 is the concentration that produces a half-maximal response. The molecule QAPLYKKIIKKLLES [C15] returned a 50% cytotoxic concentration in the data set on RD cells of over 100 µM. Also, the EC50 was found to be 5.36 nM in the data set on EV71, 10 nM in the data set with CA16, 3.12 nM in the data set with CA6 [2] and 5.41 nM in the data set on EVD68 [3]. In addition, the “Toxicity in neonatal mice (clinical scores, body weight, survival rates versus DMEM control)” value in [1] (5 mg/kg C15 without CA6 infection, intracranial, 1-day-old ICR mice) is on record as “no toxicity”. Besides, in data set [1] (injection of C15 alone in mice), the “VITT-related symptoms (weight loss, nosebleeds, gum bleeding, gastrointestinal bleeding)” value is on record as “did not result in VITT-related symptoms”.
Consider QAPLYKKIIKKLLES [C15 peptide (C-terminal 15 amino acids of PF4)], for which, in [4], the EC50 of inhibition of CA6 replication in RD cells (intracellular VP1 mRNA by RT-qPCR, 48 h) was found to be 3.12 nM. Besides, the EC50 of inhibition of EVD68 replication in RD cells (intracellular VP1 mRNA by RT-qPCR, 48 h) in data set [5] stood at 5.41 nM.

B1: PF4-His: Platelet factor 4 with His tag at the N-terminus, expressed in E. coli and purified (protein)
chain: EAEEDGDLQCLCVKTTSQVRPRHITSLEVIKAGPHCPTAQLIATLKNGRKICLDLQAPLYKKIIKKLLES
modifications: left off: Myc, N-terminal, kept
notes: Platelet factor 4 with His tag at the N-terminus, expressed in E. coli and purified
Take B1: in the data set on EVD68 [6], the “VP1 protein and mRNA levels of EVD68 and viral titer in supernatant” value is given as “gradually decreased”. Moreover, in the data set on CA6 [7], the “VP1 protein and mRNA levels of CA6 and viral titer in supernatant” value is recorded as “gradually decreased”.
